Data as given in patent publication US12653190B2, “Heteroaryl-triazole compounds as pesticides” (Bayer Aktiengesellschaft, priority 2020, dated 2026).

Tests used:
Assay type in all cases: in vivo
[1] = test system: Rhipicephalus (Boophilus) microplus larvae (strain Parkhurst, resistant against synthetic pyrethroids); assay: Rhipicephalus (Boophilus) microplus in-vitro contact test, larval cattle tick; details: 5 μg/cm^2 (=500 g/ha), after 48 hours, read-out: efficacy (larvae dead or moribund)
Procedure, shortened: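 Acetone solutions coated onto glass tube walls, 900 ppm giving 5 μg/cm^2; 20–50 larvae per tube after solvent evaporation. Incubated 48 h at 27 °C, 85% relative humidity; efficacy from negative geotaxis, 100% meaning all larvae dead or moribund.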

[2] = test system: fall armyworm larvae (Spodoptera frugiperda); assay: Spodoptera frugiperda spray test; details: in Zea mays, 168 h
Procedure, shortened: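 Maize leaf sections were sprayed with compound in acetone/dimethylformamide diluted in water with 1000 ppm emulsifier, dried, then infested with larvae. Mortality in % was scored after 7 days, 100% meaning all caterpillars killed.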

[3] = test system: larvae of the southern green stink bug (Nezara viridula); assay: Nezara viridula spray test; details: 96 h, after 4 days, barley plants
Procedure, shortened: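 Compound in acetone/DMF was diluted in water with 1000 ppm alkylarylpolyglycol ether emulsifier. Barley plants were sprayed with it, then infested with Nezara viridula larvae. Mortality % was scored after 4 days (100% = all killed).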

[4] = test system: larvae of the banded cucumber beetle (Diabrotica balteata); assay: Diabrotica balteata spray test; details: 168 h, after 7 days, wheat seeds, read-out: efficacy (seedling growth); for pest or weed control at 32 µg/disc, 100 g/ha: 100 g/ha (=32 μg/well); for pest or weed control at 160 µg/disc, 500 g/ha: 500 g/ha (=160 μg/well)
Procedure, shortened: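 Germinated wheat seeds on agar (5 per well) were sprayed with compound formulated in acetone/DMF and diluted in water with 1000 ppm emulsifier. Each unit was then infested with 10–20 larvae. Efficacy % was scored after 7 days as seedling growth relative to an untreated, uninfested control (100% = normal growth).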

[5] = test system: green peach aphid (Myzus persicae); assay: Myzus persicae spray test; details: foliar, 120 h, after 5 days, Chinese cabbage leaf disks
Procedure, shortened: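 Chinese cabbage leaf disks infested with all aphid instars were sprayed with compound in acetone/DMF, diluted in water with 1000 ppm alkylarylpolyglycol ether emulsifier. Mortality (%) scored after 5 days, 100% meaning all aphids killed.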

[6] = test system: green peach aphid (Myzus persicae); assay: Myzus persicae oral test; details: 120 h, after 5 days
Protocol: • Solvent: 100 parts by weight acetone
To produce a suitable preparation of active compound, 1 part by weight of active compound is mixed with the stated amount of solvent, and the concentrate is diluted with water to the desired concentration.
50 μL compound solution is filled in microtiter plates and 150 μL IPL41 insect medium (33%+15% sugar) is added to obtain a total volume of 200 μL per well. Afterwards the plates are sealed with parafilm through which a mixed population of the green peach aphid (Myzus persicae) can suck on the compound preparation.
After 5 days mortality in % is determined. 100% means all aphids have been killed and 0% means none of the aphids have been killed.

[7] = test system: adult mosquitoes Aedes aegypti strain MONHEIM; assay: Aedes aegypti test (AEDSAE surface treatment & contact assay); details: 24 hours after contact, read-out: efficacy (mortality); for mortality at 4 mg/m2: surface concentration 4 mg/m^2, 30 minutes exposure; for mortality at 20 mg/m2: surface concentration 20 mg/m^2, 30 minutes exposure
Procedure, shortened: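 Compound in acetone (2 mg/ml) with 2000 ppm rapeseed oil methyl ester applied to glazed tile and dried; adult Aedes aegypti MONHEIM exposed on surface for 30 min. Percent mortality scored 24 h after contact.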

[8] = test system: southern root-knot nematode (Meloidogyne incognita); assay: Meloidogyne incognita test; details: 20 ppm, after 14 days
Protocol: Meloidogyne incognita—Test
• Solvent: 125.0 parts by weight of acetone
To produce a suitable preparation of active compound, 1 part by weight of active compound is mixed with the stated amount of solvent, and the concentrate is diluted with water to the desired concentration. Vessels are filled with sand, a solution of the active ingredient, a suspension containing eggs and larvae of the southern root-knot nematode (Meloidogyne incognita) and salad seeds. The salad seeds germinate and the seedlings grow. Galls develop in the roots.
After 14 days the nematicidal activity is determined on the basis of the percentage of gall formation. 100% means no galls were found and 0% means the number of galls found on the roots of the treated plants was equal to that in untreated control plants.

[9] = test system: adult cat fleas (Ctenocephalides felis); assay: Ctenocephalides felis in-vitro contact test, adult cat flea; details: 5 μg/cm^2 (=500 g/ha), after 48 hours, read-out: efficacy (fleas dead or moribund)
Protocol: Ctenocephalides felis—In-Vitro Contact Tests Adult Cat Flea
(§1) 9 mg compound is solved in 1 mL acetone and diluted with acetone to the desired concentration. 250 μL of the test solution is filled in 25 mL glass test tubes and homogeneously distributed on the inner walls by rotation and tilting on a shaking device (2 h at 30 rpm). With a compound concentration of 900 ppm, an inner surface of 44.7 cm^2 and a homogeneous distribution, a dose of 5 μg/cm^2 is achieved.
(§2) After the solvent has evaporated, each test tube is filled with 5-10 adult cat fleas (Ctenocephalides felis), closed with a perforated lid and incubated in a lying position at room temperature and relative humidity. After 48 hours efficacy is determined. The fleas are patted on the ground of the tubes and are incubated on a heating plate at 45-50° C. for at most 5 minutes Immotile or uncoordinated moving fleas, which are not able to escape the heat by climbing upwards, are marked as dead or moribund.
An efficacy of 100% means all fleas are dead or moribund; 0% means no fleas are dead or moribund.

[10] = test system: adult engorged female ticks (Rhipicephalus microplus); assay: Rhipicephalus (Boophilus) microplus injection test; details: 168 h, egg deposition monitored after 7 days, read-out: efficacy (infertile eggs); for pest or weed control at 4 µg/tick: 4 μg/tick injected
Procedure, shortened: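 Five adult engorged female ticks each injected with 1 μL of DMSO compound solution into the abdomen, then kept in a climate chamber. Fertile egg deposition assessed after 7 days, with hatching followed to about 42 days; efficacy 100% means all eggs infertile, 0% all fertile.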

[11] = test system: adult mosquitoes Culex quinquefasciatus strain P00; assay: Culex quinquefasciatus test (CULXFA surface treatment & contact assay); details: surface concentration 20 mg/m^2, 30 minutes exposure, 24 hours after contact, read-out: efficacy (mortality)
Protocol: Culex quinquefasciatus Test (CULXFA Surface Treatment & Contact Assay)
(§3) • Solvent: Aceton+2000 ppm rapeseed oil methyl ester (RME)
In order to produce a sufficient, active ingredient containing solution it is necessary to solve the test compound in the solvent-mix (acetone at 2 mg/ml/RME 2 000 ppm). This solution is pipetted onto a glazed tile and after evaporation of the acetone, adult mosquitoes of the species Culex Quinquefasciatus strain P00 are placed onto the dried surface. The exposure time is 30 minutes. Mortality in percent (%) is determined 24 hours after contact of the insects to the treated surface. 100% mortality means that all tested insects are dead, whereas 0% means that no insect died.

[12] = test system: adult flies Musca domestica strain WHO-N; assay: Musca domestica test (MUSCDO surface treatment & contact assay); details: 24 hours after contact, read-out: efficacy (mortality); for mortality at 4 mg/m2: surface concentration 4 mg/m^2, 30 minutes exposure; for mortality at 20 mg/m2: surface concentration 20 mg/m^2, 30 minutes exposure
Protocol: Musca domestica Test (MUSCDO Surface Treatment & Contact Assay)
as §3
In order to produce a sufficient, active ingredient containing solution it is necessary to solve the test compound in the solvent-mix (acetone at 2 mg/ml/RME 2000 ppm). This solution is pipetted onto a glazed tile and after evaporation of the acetone, adult flies of the species Musca domestica strain WHO-N are placed onto the dried surface. The exposure time is 30 minutes.
Mortality in percent (%) is determined 24 hours after contact of the insects to the treated surface. 100% mortality means that all tested insects are dead, whereas 0% means that no insect died.

[13] = test system: adult brown dog ticks (Rhipicephalus sanguineus); assay: Rhipicephalus sanguineus in-vitro contact test, adult brown dog ticks; details: 5 μg/cm^2 (=500 g/ha), after 48 hours, read-out: efficacy (ticks dead or moribund)
Protocol: Rhipicephalus sanguineus—In-Vitro Contact Tests with Adult Brown Dog Ticks
as §1
as §2, with “brown dog ticks (Rhipicephalus sanguineus),” for “cat fleas (Ctenocephalides felis),”, “ticks” for “fleas”, “ticks,” for “fleas,”
An efficacy of 100% means all ticks are dead or moribund; 0% means no ticks are dead or moribund.

[14] = test system: adult unfed cat fleas (Ctenocephalides felis); assay: Ctenocephalides felis oral test; details: 48 h, 100 ppm in cattle blood, after 2 days
Protocol: Ctenocephalides felis—Oral Test
• Solvent: dimethyl sulfoxide
To produce a suitable preparation of active compound, 10 mg of active compound are dissolved in 0.5 mL solvent, and the concentrate is diluted with cattle blood to the desired concentration.
Approximately 20 adult unfed cat fleas (Ctenocephalides felts) are placed in flea chambers. The blood chamber, sealed with parafilm on the bottom, are filled with cattle blood supplied with compound solution and placed on the gauze covered top of the flea chamber, so that the fleas are able to suck the blood. The blood chamber is heated to 37° C. whereas the flea chamber is kept at room temperature.
After 2 days mortality in % is determined. 100% means all the fleas have been killed; 0% means none of the fleas have been killed.

| Compound | pest or weed control at 5 µg/cm2, 5 µg/cm2 [1] | mortality at 100 g/ha [2] | pest or weed control at 32 µg/disc, 100 g/ha [4] | mortality at 4 ppm [6] | mortality at 4 mg/m2 [7] | mortality at 20 mg/m2 [7] | nematicidal activity (gall formation) [8] | pest or weed control at 5 µg/cm2, 5 µg/cm2 [9] | further results |
| --- | --- | --- | --- | --- | --- | --- | --- | --- | --- |
| C[C@H](NC(=O)c1cc(OC[S+](C)[O-])cc(C(F)(F)F)c1)c1ncnn1-c1ccc(C#N)cn1 (stereo partly drawn) [Example I-27, N-{(1S)-1-[1-(5-Cyanopyridin-2-yl)-1H-1,2,4-triazol-5-yl]ethyl}-3-[(methylsulfinyl)methoxy]-5-(trifluoromethyl)benzamide] | 100% | 100% | 100% | 100% | 80 to 100% | 80 to 100% |  |  | mortality at 500 g/ha [2]: 100%; mortality at 100 g/ha [3]: 100%; mortality at 500 g/ha [3]: 100%; pest or weed control at 160 µg/disc, 500 g/ha [4]: 100%; mortality at 100 g/ha [5]: 90%; mortality at 20 ppm ([6]; 20 ppm): 100% |
| C[C@H](NC(=O)c1cc(Cl)cc(OC(C)(C)C#N)c1)c1ncnn1-c1ncc(C#N)s1 [Example I-61] |  | 100% | 100% |  |  |  | 90% |  |  |
| COc1nc([C@H](C)NC(=O)c2cc(Cl)cc(C(C)(C)C#N)c2)n(-c2ccc(C#N)cn2)n1 [Example I-39] |  | 100% | 100% |  |  |  | 100% |  |  |
| C[C@H](NC(=O)c1cc(OCC2CC2(Cl)Cl)cc(C(F)(F)F)c1)c1ncnn1-c1ncc(C#N)s1 (some centres unmarked) [Example I-30] |  |  | 100% | 90% |  |  |  | 80% |  |
| CCN(C)C(=O)c1ccc(-n2nc(C)nc2[C@H](C)NC(=O)c2cc(Cl)cc(C(C)(C)C#N)c2)nc1 [Example I-52, 6-[5-[(1S)-1-[[3-chloro-5-(1-cyano-1-methyl-ethyl)benzoyl]amino]ethyl]-3-methyl-1,2,4-triazol-1-yl]-N-ethyl-N-methyl-pyridine-3-carboxamide] | 90% | 100% |  |  |  |  | 100% |  | mortality at 500 g/ha [3]: 100% |
| C[C@H](NC(=O)c1cc(Cl)cc(Oc2ccc(F)cc2)c1)c1ncnn1-c1ccc(C#N)cn1 [Example I-9] | 90% |  |  |  |  |  | 90% |  | pest or weed control at 4 µg/tick [10]: 100%; pest or weed control at 20 µg/tick ([10]; 20 μg/tick injected): 100% |
| C[C@H](NC(=O)c1cc(Cl)cc(C(=O)C2CC2)c1)c1ncnn1-c1ccc(C#N)cn1 [Example I-35] | 100% | 100% | 100% | 100% | 80 to 100% | 80 to 100% |  | 100% | mortality at 20 mg/m2 [11]: 80 to 100%; mortality at 4 mg/m2 [12]: 80 to 100%; mortality at 20 mg/m2 [12]: 80 to 100%; mortality at 100 g/ha [3]: 100%; pest or weed control at 5 µg/cm2, 5 µg/cm2 [13]: 80% |
| C[C@H](NC(=O)c1cc(OCC(Cl)=C(Cl)Cl)cc(C(F)(F)F)c1)c1ncnn1-c1ccc(C#N)cn1 [Example I-24] |  | 100% | 100% |  |  |  | 90% |  | mortality at 500 g/ha [2]: 100%; pest or weed control at 160 µg/disc, 500 g/ha [4]: 100% |
| C[C@H](NC(=O)c1cc(Br)cc(C(F)(F)c2ccc(F)cc2)c1)c1ncnn1-c1ccc(C#N)cn1 [Example I-25] | 100% | 100% |  |  |  |  | 90% |  | mortality at 100 ppm [14]: 90%; pest or weed control at 4 µg/tick [10]: 100% |
| C[C@H](NC(=O)c1cc(Cl)cc(C(C)(C)C#N)c1)c1ncnn1-c1ccc(C#N)cn1 [Example I-33, 3-Chloro-5-(2-cyanopropan-2-yl)-N-{(1S)-1-[1-(5-cyanopyridin-2-yl)-1H-1,2,4-triazol-5-yl]ethyl}benzamide] | 100% | 100% | 100% | 100% | 80 to 100% | 80 to 100% |  | 80% | mortality at 20 mg/m2 [11]: 80 to 100%; mortality at 4 mg/m2 [12]: 80 to 100%; mortality at 20 mg/m2 [12]: 80 to 100%; pest or weed control at 5 µg/cm2, 5 µg/cm2 [13]: 100% |
